ChEMBL document CHEMBL2413058, “Structure-cytotoxic activity relationship of sesquilignan, morinol A” (Bioorg Med Chem Lett, 2013)

Experiments:
HL-60 [1] = assay: Cytotoxicity against human HL60 cells after 48 hrs by WST8 assay; type: functional, cell-based; settings: HL-60, 48 h
HeLa [2] = assay: Cytotoxicity against human HeLa cells after 48 hrs by WST8 assay; type: functional, cell-based
HeLa [3] = assay: Cytotoxicity against human HeLa cells at 100 uM after 48 hrs by WST8 assay; type: functional
HeLa [4] = assay: Ratio of IC50 for human HeLa cells to IC50 for human HL60 cells; type: functional
HL-60 [5] = assay: Cytotoxicity against human HL60 cells at 100 uM after 48 hrs by WST8 assay; type: functional; settings: HL-60, 48 h

SMILES | IC50 (HL-60 [1]) | IC50 (HeLa [2]) | further results
O[C@@H](c1ccccc1)[C@H]1CO[C@H](c2ccccc2)[C@@H](C/C=C/c2ccccc2F)C1 | 9.53 µM | 9.73 µM | –
COc1ccc(/C=C/C[C@H]2C[C@H]([C@H](O)c3ccc(OC)c(OC)c3)CO[C@@H]2c2ccc(OC)c(OC)c2)cc1OC | 23.5 µM | 34.6 µM | –
COc1ccc(/C=C/C[C@@H]2C[C@@H]([C@@H](O)c3ccc(OC)c(OC)c3)CO[C@H]2c2ccc(OC)c(OC)c2)cc1OC | 26 µM | 30.6 µM | –
COc1ccc(CCC[C@H]2C[C@@H]([C@@H](O)c3ccc(OC)c(OC)c3)CO[C@@H]2c2ccc(OC)c(OC)c2)cc1OC | – | 37.7 µM | –
COc1ccc(/C=C/C[C@H]2C[C@@H]([C@@H](OC(C)=O)c3ccc(OC)c(OC)c3)CO[C@@H]2c2ccc(OC)c(OC)c2)cc1OC | – | > 100 µM | inhibition at 100 µM (HeLa [3]): 29%
COc1ccc(/C=C/C[C@H]2C[C@@H]([C@@H](OC)c3ccc(OC)c(OC)c3)CO[C@@H]2c2ccc(OC)c(OC)c2)cc1OC | – | > 100 µM | inhibition at 100 µM (HeLa [3]): 4.8%
COc1ccc([C@H]2OC[C@H]([C@@H](O)c3ccc(OC)c(OC)c3)C[C@@H]2C/C=C/c2ccc(OC)c(OC)c2)cc1 | – | 46.7 µM | –
COc1cccc([C@H]2OC[C@H]([C@@H](O)c3ccc(OC)c(OC)c3)C[C@@H]2C/C=C/c2ccc(OC)c(OC)c2)c1 | – | 21.8 µM | –
COc1ccc(/C=C/C[C@H]2C[C@@H]([C@@H](O)c3ccc(OC)c(OC)c3)CO[C@@H]2c2ccccc2)cc1OC | – | 17 µM | –
COc1ccc([C@H](O)[C@H]2CO[C@H](c3ccc(OC)c(OC)c3)[C@@H](C/C=C/c3ccc(OC)c(OC)c3)C2)cc1 | – | 46 µM | –
COc1cccc([C@H](O)[C@H]2CO[C@H](c3ccc(OC)c(OC)c3)[C@@H](C/C=C/c3ccc(OC)c(OC)c3)C2)c1 | – | 21.2 µM | –
COc1ccc(/C=C/C[C@H]2C[C@@H]([C@@H](O)c3ccccc3)CO[C@@H]2c2ccc(OC)c(OC)c2)cc1OC | – | 15.5 µM | –
COc1ccc(/C=C/C[C@H]2C[C@@H]([C@@H](O)c3ccc(OC)c(OC)c3)CO[C@@H]2c2ccc(OC)c(OC)c2)cc1 | – | 12.2 µM | –
COc1cccc(/C=C/C[C@H]2C[C@@H]([C@@H](O)c3ccc(OC)c(OC)c3)CO[C@@H]2c2ccc(OC)c(OC)c2)c1 | – | 14 µM | –
COc1ccc([C@H]2OC[C@H]([C@@H](O)c3ccc(OC)c(OC)c3)C[C@@H]2C/C=C/c2ccccc2)cc1OC | – | 14.8 µM | –
C=CC[C@H]1C[C@@H]([C@@H](O)c2ccccc2)CO[C@@H]1c1ccccc1 | 36 µM | 25.4 µM | –
O[C@@H](c1ccccc1)[C@H]1CO[C@H](c2ccccc2)[C@@H](C/C=C/c2ccccc2)C1 | 7.04 µM | 6.06 µM | Ratio IC50 (HeLa [4]): 1.5
O[C@@H](c1ccccc1)[C@H]1CO[C@H](c2ccccc2)[C@@H](C/C=C/c2ccccn2)C1 | 36.4 µM | 33.8 µM | –
O[C@@H](c1ccccc1)[C@H]1CO[C@H](c2ccccc2)[C@@H](C/C=C/c2cccnc2)C1 | > 100 µM | > 100 µM | inhibition at 100 µM (HL-60 [5]): 48%; inhibition at 100 µM (HeLa [3]): 4%
O[C@@H](c1ccccc1)[C@H]1CO[C@H](c2ccccc2)[C@@H](C/C=C/c2ccncc2)C1 | > 100 µM | > 100 µM | inhibition at 100 µM (HL-60 [5]): 13%; inhibition at 100 µM (HeLa [3]): 34%
Oc1ccccc1/C=C/C[C@H]1C[C@@H]([C@@H](O)c2ccccc2)CO[C@@H]1c1ccccc1 | 10.8 µM | 21.8 µM | –
Oc1cccc(/C=C/C[C@H]2C[C@@H]([C@@H](O)c3ccccc3)CO[C@@H]2c2ccccc2)c1 | 12.8 µM | 18.6 µM | –
Oc1ccc(/C=C/C[C@H]2C[C@@H]([C@@H](O)c3ccccc3)CO[C@@H]2c2ccccc2)cc1 | 7.38 µM | 14.4 µM | –
COc1ccccc1/C=C/C[C@H]1C[C@@H]([C@@H](O)c2ccccc2)CO[C@@H]1c1ccccc1 | 10.1 µM | 14.7 µM | –
COc1cccc(/C=C/C[C@H]2C[C@@H]([C@@H](O)c3ccccc3)CO[C@@H]2c2ccccc2)c1 | 9.62 µM | 10.9 µM | –

SMILES | IC50 (HL-60 [1]) | IC50 (HeLa [2]) | further results
COc1ccc(/C=C/C[C@H]2C[C@@H]([C@@H](O)c3ccccc3)CO[C@@H]2c2ccccc2)cc1 | 9.01 µM | 8.3 µM | –
O[C@@H](c1ccccc1)[C@H]1CO[C@H](c2ccccc2)[C@@H](C/C=C/c2cccc(F)c2)C1 | 9.17 µM | 8.38 µM | –
O[C@@H](c1ccccc1)[C@H]1CO[C@H](c2ccccc2)[C@@H](C/C=C/c2ccc(F)cc2)C1 | 8.11 µM | 8.34 µM | –
O=[N+]([O-])c1ccccc1/C=C/C[C@H]1C[C@@H]([C@@H](O)c2ccccc2)CO[C@@H]1c1ccccc1 | 7.25 µM | 11.8 µM | –
O=[N+]([O-])c1cccc(/C=C/C[C@H]2C[C@@H]([C@@H](O)c3ccccc3)CO[C@@H]2c2ccccc2)c1 | 6.35 µM | 7.85 µM | –
O=[N+]([O-])c1ccc(/C=C/C[C@H]2C[C@@H]([C@@H](O)c3ccccc3)CO[C@@H]2c2ccccc2)cc1 | 4.88 µM | 12.4 µM | –
Cc1ccc(/C=C/C[C@H]2C[C@@H]([C@@H](O)c3ccccc3)CO[C@@H]2c2ccccc2)cc1C | 9.88 µM | 10 µM | –
O[C@@H](c1ccccc1)[C@H]1CO[C@H](c2ccccc2)[C@@H](C/C=C/C2CCCC2)C1 | 9.06 µM | 9.33 µM | –
O[C@@H](c1ccccc1)[C@H]1CO[C@H](c2ccccc2)[C@@H](C/C=C/C2CCCCC2)C1 | 6.26 µM | 6.44 µM | –
CCCCCC/C=C/C[C@H]1C[C@@H]([C@@H](O)c2ccccc2)CO[C@@H]1c1ccccc1 | 4.99 µM | 7.4 µM | –
COc1ccc(CCC[C@@H]2C[C@@H]([C@@H](O)c3ccc(OC)c(OC)c3)CO[C@H]2c2ccc(OC)c(OC)c2)cc1OC | – | 35.7 µM | –
COc1ccc(/C=C/C[C@@H]2C[C@@H]([C@@H](OC(C)=O)c3ccc(OC)c(OC)c3)CO[C@H]2c2ccc(OC)c(OC)c2)cc1OC | – | > 100 µM | inhibition at 100 µM (HeLa [3]): 48%
COc1ccc(/C=C/C[C@@H]2C[C@@H]([C@@H](OC)c3ccc(OC)c(OC)c3)CO[C@H]2c2ccc(OC)c(OC)c2)cc1OC | – | > 100 µM | inhibition at 100 µM (HeLa [3]): 34%
COc1ccc([C@@H]2OC[C@H]([C@@H](O)c3ccc(OC)c(OC)c3)C[C@H]2C/C=C/c2ccc(OC)c(OC)c2)cc1 | – | 29.2 µM | –
COc1cccc([C@@H]2OC[C@H]([C@@H](O)c3ccc(OC)c(OC)c3)C[C@H]2C/C=C/c2ccc(OC)c(OC)c2)c1 | – | 30.1 µM | –
COc1ccc(/C=C/C[C@@H]2C[C@@H]([C@@H](O)c3ccc(OC)c(OC)c3)CO[C@H]2c2ccccc2)cc1OC | – | 16.1 µM | –
COc1ccc([C@H](O)[C@H]2CO[C@@H](c3ccc(OC)c(OC)c3)[C@H](C/C=C/c3ccc(OC)c(OC)c3)C2)cc1 | – | 32.2 µM | –
COc1cccc([C@H](O)[C@H]2CO[C@@H](c3ccc(OC)c(OC)c3)[C@H](C/C=C/c3ccc(OC)c(OC)c3)C2)c1 | – | 18.6 µM | –
COc1ccc(/C=C/C[C@@H]2C[C@@H]([C@@H](O)c3ccccc3)CO[C@H]2c2ccc(OC)c(OC)c2)cc1OC | – | 16.8 µM | –
COc1ccc(/C=C/C[C@@H]2C[C@@H]([C@@H](O)c3ccc(OC)c(OC)c3)CO[C@H]2c2ccc(OC)c(OC)c2)cc1 | – | 17.1 µM | –
COc1cccc(/C=C/C[C@@H]2C[C@@H]([C@@H](O)c3ccc(OC)c(OC)c3)CO[C@H]2c2ccc(OC)c(OC)c2)c1 | – | 16.4 µM | –
COc1ccc([C@H](O)[C@H]2CO[C@@H](c3ccc(OC)c(OC)c3)[C@H](C/C=C/c3ccccc3)C2)cc1OC | – | 16.1 µM | –
COc1ccc(/C=C/C[C@H]2C[C@@H]([C@@H](O)c3ccc(OC)c(OC)c3)CO[C@@H]2c2ccc(OC)c(OC)c2)cc1OC | 34.7 µM | 23.8 µM | –
COc1ccc(/C=C/C[C@@H]2C[C@H]([C@H](O)c3ccc(OC)c(OC)c3)CO[C@H]2c2ccc(OC)c(OC)c2)cc1OC | – | 28.7 µM | –
